The values that follow come from patent publication US20240300893A1, “SMALL MOLECULE COMPOUNDS TARGETING SRSF6 PROTEIN AND THEIR PREPARATION METHODS AND APPLICATIONS” (CHINA PHARMACEUTICAL UNIVERSITY, priority 2021, published 2024).

One assay concerns HT29 cells. The assay is described as follows: Inhibitory effect on HT29 cells (cell survival rate at 48 h). The assay is classed as cell-based, Human. The note with it: HT29, procedures as for SW620, 48 h, read-out: IC50, inhibitory effects on HT29 cells. As to the method: (§1) Compound I was prepared with the same concentration gradient for primary screening, and compounds with lower IC50 than indacaterol were screened for secondary screening with concentration gradients of 1, 2, 4, and 8 μM.
(§2) Both rounds of screening were performed on the colorectal cancer cell line SW620 with an initial cell number of 5000 cells per well, and the cell survival rate at 48 h was determined directly to determine the IC50 of the compound.
(§3) Cell viability=[(reading of experimental group−reading of blank group)/(reading of control group−reading of blank group)]×100%.

The test system of the next assay is RKO cells. As to the kind of experiment: Inhibitory effect on RKO cells (cell survival rate at 48 h). The following applies: procedures as for SW620, 48 h, read-out: IC50, inhibitory effects on RKO cells. The class given is cell-based, Human. As to the method:
as §1, §2, §3

The target in a further assay is T1, SRSF6 protein (Homo sapiens, UniProt Q13247).
T1 sequence (Q13247 1-183): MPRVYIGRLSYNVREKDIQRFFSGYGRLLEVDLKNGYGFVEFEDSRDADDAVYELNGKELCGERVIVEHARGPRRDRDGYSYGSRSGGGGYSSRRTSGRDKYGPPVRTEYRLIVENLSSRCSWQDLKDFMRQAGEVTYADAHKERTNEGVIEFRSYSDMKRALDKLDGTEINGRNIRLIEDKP
As to the kind of experiment: SRSF6 protein thermal shift assay. The class given is binding. The note with it: for migration of SRSF6 protein compared with DMSO: in words. From the text: SRSF proteins play an important role in the regulation of gene expression, including constitutive splicing, alternative splicing, mRNA nuclear export and translation. SRSF proteins can be divided into two groups according to the number of RRM domains. Among them, SRSF6 has RRM1 and RRM2 domains. The RRM1 domain contains conserved sequences of RNP-1 and RNP-2, which can bind to related mRNAs. However, the RRM2 domain contains the evolutionarily conserved SWQDLKD heptapeptide sequence. RRM1 and RRM2 domains play irreplaceable roles in the specific recognition of alternative splice sites. Overexpression of SRSF6 induced colorectal carcinogenesis by binding to cell adhesion factor ZO-1, while indacaterol was validated to inhibit tumor development. Therefore, RRM1 and RRM2 domains of SRSF6 were extracted and the binding ability of compound I1 to SRSF6 was investigated by protein thermal shift assay using LYW1 as a reference.
We used DMSO as the blank group, and 56.5 μM SRSF6 protein was added to the PCR tube with LYW1 and I1 at a concentration of 1:10, respectively. After TS dye was added in the dark, the thermal migration assay was performed.

The next assay relates to SW620 cells. As to the kind of experiment: Inhibitory effect on SW620 cells (cell survival rate at 48 h). The note with it: read-out: IC50, inhibitory effects on SW620 cells. The assay is classed as cell-based. As to the method: as §1, §2, §3
[1] abbreviates: Homo sapiens, SW-620, 48 h, SW620, 5000 cells per well.

Structures are written as SMILES. Read-outs that look alike come from different tables or passages of the source.

Consider `CCc1cc2c(cc1CC)CC(NC[C@@H](O)c1ccc(OCc3ccc(F)cc3)c3[nH]c(=O)ccc13)C2` [Compound I1, (S)-5-(2-((5,6-diethyl-2,3-dihydro-1H-inden-2-yl)amino)-1-hydroxyethyl)-8-((4-fluorobenzyl)oxy)quinolin-2(1H)-one], for which the IC50 in the assay with HT29 cells (Homo sapiens, HT-29) was 1.42 µM; in the assay with RKO cells (Homo sapiens) it was 1.42 µM; in the assay on SW620 cells (Homo sapiens, SW-620, SW620, 5000 cells per well) it was 3.12 µM. Also, the “binding effect with SRSF6 protein” value on SRSF6 protein (compared with LYW1, in words) is listed as “better binding effect”. The “migration of SRSF6 protein compared with DMSO” value at SRSF6 protein is given as “negative migration”.

Turning to `CCc1cc2c(cc1CC)CC(NC[C@H](O)c1ccc(OCc3ccc(F)cc3)c3[nH]c(=O)ccc13)C2` [Compound I2, (R)-5-(2-((5,6-diethyl-2,3-dihydro-1H-inden-2-yl)amino)-1-hydroxyethyl)-8-((4-fluorobenzyl)oxy)quinolin-2(1H)-one], the IC50 came to 4.69 µM with HT29 cells (Homo sapiens, HT-29, 48 h); 5.56 µM in the assay with RKO cells (Homo sapiens, 48 h); 8.62 µM with SW620 cells (setting [1]).

Take `CCc1cc2c(cc1CC)CC(NC[C@@H](O)c1ccc(OCc3ccc(C)cc3)c3[nH]c(=O)ccc13)C2` [Compound I4, (S)-5-(2-((5,6-diethyl-2,3-dihydro-1H-inden-2-yl)amino)-1-hydroxyethyl)-8-((4-methylbenzyl)oxy)quinolin-2(1H)-one]: the IC50 in the assay on SW620 cells (setting [1]) was 2.9 µM.

`CCc1cc2c(cc1CC)CC(NC[C@H](O)c1ccc(OCc3ccc(C)cc3)c3[nH]c(=O)ccc13)C2` [Compound I5, (R)-5-(2-((5,6-diethyl-2,3-dihydro-1H-inden-2-yl)amino)-1-hydroxyethyl)-8-((4-methylbenzyl)oxy)quinolin-2(1H)-one]: in the assay with SW620 cells (setting [1]), the IC50 turned out to be 2.98 µM.

As for `CCc1cc2c(cc1CC)CC(NC[C@@H](O)c1ccc(OCc3cccc(F)c3)c3[nH]c(=O)ccc13)C2` [Compound I6, (S)-5-(2-((5,6-diethyl-2,3-dihydro-1H-inden-2-yl)amino)-1-hydroxyethyl)-8-((3-fluorobenzyl)oxy)quinolin-2(1H)-one], in the assay on SW620 cells (setting [1]), the IC50 was determined as 3.06 µM.

As to `CCc1cc2c(cc1CC)CC(NC[C@H](O)c1ccc(OCc3cccc(F)c3)c3[nH]c(=O)ccc13)C2` [Compound I7, (R)-5-(2-((5,6-diethyl-2,3-dihydro-1H-inden-2-yl)amino)-1-hydroxyethyl)-8-((3-fluorobenzyl)oxy)quinolin-2(1H)-one], the IC50 was found to be 2.66 µM in the assay with HT29 cells (Homo sapiens, HT-29, 48 h); 3.11 µM in the assay on RKO cells (Homo sapiens, 48 h); 2.73 µM in the assay with SW620 cells (setting [1]).

Take `CCc1cc2c(cc1CC)CC(NC[C@@H](O)c1ccc(OCc3cc(F)cc(F)c3)c3[nH]c(=O)ccc13)C2` [Compound I9, (S)-5-(2-((5,6-diethyl-2,3-dihydro-1H-inden-2-yl)amino)-1-hydroxyethyl)-8-((3,5-difluorobenzyl)oxy)quinolin-2(1H)-one]: the IC50 with SW620 cells (setting [1]) was 3.15 µM.

Turning to `CCc1cc2c(cc1CC)CC(NC[C@@H](O)c1ccc(OCc3ccc(F)c(F)c3)c3[nH]c(=O)ccc13)C2` [Compound I10, (S)-5-(2-((5,6-diethyl-2,3-dihydro-1H-inden-2-yl)amino)-1-hydroxyethyl)-8-((3,4-difluorobenzyl)oxy)quinolin-2(1H)-one], the concentration for half-maximal inhibition (IC50) in the assay on SW620 cells (setting [1]) is 4.18 µM.

With `CCc1cc2c(cc1CC)CC(NC[C@@H](O)c1ccc(OCc3c(F)c(F)c(F)c(F)c3F)c3[nH]c(=O)ccc13)C2` [Compound I11, (S)-5-(2-((5,6-diethyl-2,3-dihydro-1H-inden-2-yl)amino)-1-hydroxyethyl)-8-((perfluorophenyl)methoxy)quinolin-2(1H)-one], the IC50 in the assay on SW620 cells (setting [1]) was determined as 6.09 µM.

For `CCc1cc2c(cc1CC)CC(NC[C@H](O)c1ccc(O)c3[nH]c(=O)ccc13)C2` [Indacaterol, reference compound], the IC50 was 12.7 µM in the assay on HT29 cells; 10 to 15 µM in the assay on HT29 cells (Homo sapiens, HT-29, 48 h); 10 to 15 µM with RKO cells (Homo sapiens, 48 h); 12.8 µM in the assay on RKO cells; 20 to 25 µM in the assay on SW620 cells (setting [1]); 23.1 µM in the assay on SW620 cells (SW620, 5000 cells per well).

Turning to `CCc1cc2c(cc1CC)CC(NC[C@H](O)c1ccc(OCc3ccccc3)c3[nH]c(=O)ccc13)C2` [LYW1, reference compound], the concentration for half-maximal inhibition (IC50) with HT29 cells (Homo sapiens, HT-29, 48 h) came out at 2.43 µM; in the assay on RKO cells (Homo sapiens, 48 h) it was 2.03 µM; in the assay on SW620 cells (setting [1]), 3.54 µM. Moreover, at SRSF6 protein, the “migration of SRSF6 protein compared with DMSO” value is given as “negative migration”.

For orientation: IC50 means the concentration at which inhibition is half-maximal.
